Experimental data published in patent US20050222158A1, “Method of treating migraine headaches using calcitonin gene related peptide mimetics” (priority 2004, published 2005).

Target: T1, human CGRP receptor (Homo sapiens, UniProt O60894+Q16602)
T1 construct: SK-N-MC cells that endogenously express the human CGRP receptor; endogenous in cells; host or cells: SK-N-MC cells (membrane homogenates)
Experiment: [125I]-CGRP radioligand binding assay, SK-N-MC cell homogenates
Conditions: 40 pM [125I]-CGRP, room temperature
Protocol: Tissue culture. SK-N-MC cells were grown at 37° C. in 5% CO2 as a monolayer in medium consisting of MEM with Earle's salts and L-glutamine (Gibco) supplemented with 10% fetal bovine serum (Gibco). Radioligand binding assays. Cells were rinsed twice with phosphate-buffered saline (155 mM NaCl, 3.3 mM Na2HPO4, 1.1 mM KH2PO4, pH 7.4), and incubated for 5-10 min. at 4° C. in hypotonic lysis buffer consisting of 10 mM Tris (pH 7.4) and 5 mM EDTA. Cells were transferred from plates to polypropylene tubes (16×100 mm), homogenized and centrifuged at 32,000×g for 30 min. Pellets were resuspended in buffer consisting of 50 mM Tris (pH 7.4) and 1 mM EDTA, homogenized, and centrifuged again at 32,000×g for 30 min. Pellets were resuspended in 100 mM Tris-Cl pH 7.5, 10 mM MgCl2, 0.1% mammalian protease inhibitor cocktail (Sigma) and stored at −80° C. until needed. On the day of an experiment, homogenates were thawed and homogenized again. Binding of [^125I]-CGRP (NEN) was carried out in buffer containing 50 mM Tris-Cl pH 7.5, 5 mM MgCl2, 0.5% BSA. Homogenates (3.5 μg protein/well) were incubated with competitor compounds (solubilized in 100% DMSO at 100× their final assay concentrations) for one hour at room temperature. Then [^125I]-CGRP was added (40 pM final concentration) and the reaction incubated for one additional hour at room temperature. […]

T1 sequence (Q16602 23-461): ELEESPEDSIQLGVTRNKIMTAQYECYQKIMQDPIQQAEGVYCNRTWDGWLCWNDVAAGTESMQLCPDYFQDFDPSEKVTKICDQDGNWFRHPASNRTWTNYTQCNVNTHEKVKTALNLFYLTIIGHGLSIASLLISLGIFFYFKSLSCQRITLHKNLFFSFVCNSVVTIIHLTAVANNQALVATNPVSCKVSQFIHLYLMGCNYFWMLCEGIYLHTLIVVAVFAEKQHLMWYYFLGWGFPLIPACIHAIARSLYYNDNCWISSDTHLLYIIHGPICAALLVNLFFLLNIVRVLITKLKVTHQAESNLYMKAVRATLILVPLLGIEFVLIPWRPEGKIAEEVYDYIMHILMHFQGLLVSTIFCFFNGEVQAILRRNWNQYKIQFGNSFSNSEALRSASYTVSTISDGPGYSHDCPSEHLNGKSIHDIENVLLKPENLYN
T1 sequence (O60894 27-148): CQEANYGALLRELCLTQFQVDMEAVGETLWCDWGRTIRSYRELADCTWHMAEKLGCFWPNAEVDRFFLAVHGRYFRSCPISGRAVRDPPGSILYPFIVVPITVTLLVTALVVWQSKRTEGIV

Question: With `CC(=O)c1ccc(NC(=O)N2CCC(=O)N3[C@@H]2CN(CCc2cccc(F)c2)C(=O)[C@@H]3CC(=O)OC2[C@H]3C[C@@H]4C[C@@H](C[C@H]2C4)C3)cc1` (stereo partly drawn) [Compound 29, {1-(4-Acetyl-phenylcarbamoyl)-(6S,9aS)-8-[2-(3-fluoro-phenyl)-ethyl]-4,7-dioxo-octahydro-pyrazino[1,2a]pyrimidin-6-yl}-acetic acid adamantan-2-yl ester] as the compound, how does the IC50 read?
Answer: 5160 nM
